Three compounds from patent US20050163831A1, “Patch for transdermal administration” (Hisamitsu Pharmaceutical Co., Inc., priority 2002, published 2005) can be followed below.

Data set [1] is described as follows: permeability test through hairless mouse skin (flow-through cell). Conditions: for maximum value of the permeability rate of the drug per unit area of the skin, base agent Acetone: 1% (w/v) solution in acetone as donor; for maximum value of the permeability rate of the drug per unit area of the skin, base agent Acetone / maximum value of the permeability rate of the drug per unit area of the skin, base agent IPM / maximum value of the permeability rate of the drug per unit area of the skin, base agent Liquid paraffin / maximum value of the permeability rate of the drug per unit area of the skin, base agent PG: extirpated hairless mouse dorsal skin, 37° C., up to 24 hours; for maximum value of the permeability rate of the drug per unit area of the skin, base agent IPM: saturated solution in isopropyl myristate (IPM) as donor; for maximum value of the permeability rate of the drug per unit area of the skin, base agent Liquid paraffin: saturated solution in liquid paraffin as donor; for maximum value of the permeability rate of the drug per unit area of the skin, base agent PG: saturated solution in propylene glycol (PG) as donor. It is filed as in vitro ADME. As for the experimental part:
Preliminary Test 1 (permeability test through hairless mouse skin)
A permeability test through hairless mouse skin was conducted for the following 1-12 test solutions:
First, dorsal skin of a hairless mouse was extirpated, which was set to a flow-through cell (effective area: 1 cm^2) with facing the dermis side to the receptor side, where a water of 37° C. was circulating the periphery of the cell. Next, 1 mL of Test solution 1 was charged in a cell on the stratum corneum side of the skin as a donor solution. While using a mixed solution of 40% (v/v) polyethylene glycol 400/physiological saline as a receptor layer, sampling of the receptor solution was carried out at a speed of 5 mL/hour every 2 hours up to 24 hours. For receptor solutions obtained at respective times, the flow volume was measured precisely and the drug concentration was measured by using high-performance liquid chromatography. From the obtained measurement values of the flow volume and drug concentration, the permeability rate per 1 hour was calculated to obtain the maximum value of the permeability rate of the drug per unit area of the skin.

Data set [2] has as its system carrageenin-induced paw edema. The data set is described as follows: carrageenin-induced paw edema test in rats. The format is in vivo. Conditions: 100 μL of 3% (w/v) solution in acetone applied to footpad for 3 hours; measured 3 hours after carrageenin; p<0.01 vs control. The source says:
Preliminary Test 3 (carrageenin-induced paw edema test in rats)
First, SD male rats with weight of around 110 g were used to measure a paw volume (mL) of a right hind footpad by using a water-replacement type paw volume determining device (Model TK-101 CMP, MUROMACHI KIKAI) according to the method of Fujihira et al. [Fujihira Eichi, Screening no Hoho to Mondaiten—Adjuvant Kansetsuen ni yoru Koenshoyaku no Kenteiho (Methods and Problems of Screening—Assay of Antiinflammatory Agent by Adjuvant Arthritis) (1971) Oyo Yakuri (Pharmacometrics) 5,169-183], and they were grouped such that there was no difference between the average paw volume values of both groups. Next, each 100 μL of a 3% (w/v) solution of valdecoxib in acetone was applied to the right hind footpad. On the other hand, acetone was applied to the control group. After sufficient drying after the application, the rats were housed in separate cages without covering treatment. […] After additional 3 hours, the paw volume at the right hind footpad was measured again to calculate an edema ratio (%) according to the following edema ratio calculation method (calculation formula): Edema ratio (%)=[(paw volume after 3 hours from inflammation (mL)−paw volume at ordinary time (mL))/paw volume at ordinary time (mL))]×100 to evaluate the antiinflammatory effect of valdecoxib. […]

The test system of data set [3] is yeast-induced paw inflammation and nociception. The data set is described as follows: yeast-induced paw inflammation and nociception test in rats. The format is in vivo. Conditions: 100 μL of 3% (w/v) solution in acetone applied to footpad for 3 hours; measured 3 hours after yeast injection; p<0.01 vs control. The source says:
Preliminary Test 2 (yeast-induced paw inflammation and nociception test in rats) First, SD male rats with weight of around 130 g were used to measure a pain threshold value (g) by using analgesimeter (Analgesy 7200, Ugo Basile) according to the method of Randall & […]. and […] method for measurement of analgesic activity on inflamed tissue. (1957) Arch. Int. Pharmacodyn. 4, 409-419], while defining removal reaction against pressure irritation to a right hind footpad as the index, and they were grouped such that there was no difference between the average pain threshold values of both groups. […] On the other hand, acetone was applied to the control group. After sufficient drying after the application, the rats were housed in separate cages without covering treatment. At this time, for the purpose of preventing oral drug intake, a collar was attached to all the rats including the control group. After 3 hours from the application described above, valdecoxib remaining at the applied site was wiped off with absorbent cotton having been dipped in slightly warm water and, immediately after the wipe, each 100 μL of a yeast suspension (20% Baker's Yeast) was injected subcutaneously to all the rats including the control group to induce inflammation. […] The obtained results are illustrated in FIG. 1.

For the compound `Cc1ccc(-c2cc(C(F)(F)F)nn2-c2ccc(S(N)(=O)=O)cc2)cc1` [celecoxib, 4-[5-(4-methylphenyl)-3-(trifluoromethyl)pyrazole-1-yl]benzolsulfonamide], in data set [1], the “maximum value of the permeability rate of the drug per unit area of the skin, base agent Acetone” value turned out to be 0.3 μg/cm^2/hr; the “maximum value of the permeability rate of the drug per unit area of the skin, base agent IPM” value is 2.04 μg/cm^2/hr; the “maximum value of the permeability rate of the drug per unit area of the skin, base agent Liquid paraffin” value is given as 0.00 μg/cm^2/hr; the “maximum value of the permeability rate of the drug per unit area of the skin, base agent PG” value is reported as 0.90 μg/cm^2/hr.
On to `CS(=O)(=O)c1ccc(C2=C(c3ccccc3)C(=O)OC2)cc1` [rofecoxib, 3-phenyl-4-(4-methylsulfonylphenyl)-2(5H)-furanone], for which, in data set [1], the “maximum value of the permeability rate of the drug per unit area of the skin, base agent Acetone” value came to 0.09 μg/cm^2/hr; the “maximum value of the permeability rate of the drug per unit area of the skin, base agent IPM” value is 0.00 μg/cm^2/hr; the “maximum value of the permeability rate of the drug per unit area of the skin, base agent Liquid paraffin” value worked out at 0.00 μg/cm^2/hr; the “maximum value of the permeability rate of the drug per unit area of the skin, base agent PG” value worked out at 0.00 μg/cm^2/hr.
Consider `Cc1onc(-c2ccccc2)c1-c1ccc(S(N)(=O)=O)cc1` [valdecoxib, 4-(5-methyl-3-phenylisoxazole-4-yl)benzenesulfonamide], for which, in data set [1], the “maximum value of the permeability rate of the drug per unit area of the skin, base agent Acetone” value is listed as 0.59 μg/cm^2/hr; the “maximum value of the permeability rate of the drug per unit area of the skin, base agent IPM” value stood at 2.97 μg/cm^2/hr; the “maximum value of the permeability rate of the drug per unit area of the skin, base agent Liquid paraffin” value was determined as 0.41 μg/cm^2/hr; the “maximum value of the permeability rate of the drug per unit area of the skin, base agent PG” value is 4.10 μg/cm^2/hr. In addition, the “skin permeability (in words)” value in data set [1] (compared with celecoxib and rofecoxib, Table 1) was “very high skin permeability”. In addition, the “antiinflammatory action (edema ratio, FIG. 2)” value in data set [2] is given as “significant antiinflammatory action”. Moreover, the “analgesic action (pain threshold value at right hind footpad, FIG. 1)” value in data set [3] was “significant analgesic action”.
